In article PMC10221314 (Pharmaceuticals, 2023):
“Also recorded” adds a separate entry of the source.

Assays:
HFD mice = system: HFD mice; design: method as in PMID 30635917; details: 100 mg·Kg^−1; cited from earlier work
FXR downstream genes [1] = test: mRNA expression of FXR downstream genes in HepG2 cells (qRT-PCR); assay type: cell-based; details: 50 μM, 24 h
Description: (§1) Cells and liver tissue samples were subjected to RNA extraction and purification, followed by reverse transcription of equal amounts of total RNA into […] using a Transcriptor First Strand cDNA Synthesis Kit (Roche). The relative expression levels of the target gene were determined using TaqMan probe/primers with an ABI Q3 quantitative real-time PCR system, while GAPDH/Gapdh was utilized as an internal control for mRNA expression. The fold change in the expression of the target mRNA was calculated using Equation 2^−ΔΔCt.
(A) Relative mRNA level of SHP; (B) Relative mRNA level of BSEP; (C) Relative mRNA level of CYP7A1; (D) Relative mRNA level of SREBP1c; (E) Relative mRNA level of PEPCK; (F) Expression level of G6Pase. HepG2 cells were seeded in a 6-well plate and treated with DMSO and varying concentrations of compound 10b for 24 h with or without 50 μM of 1. The mRNA levels of SHP, BSEP, CYP7A1, SREBP1c, PEPCK, and G6Pase were quantified and normalized to β-actin expression.

FXR downstream genes [2] = details: previous study; cited from earlier work
FXR = biological target: T1, FXR (Homo sapiens, UniProt Q96RI1); test: Yeast one-hybrid assay of FXR antagonistic activity in HEK-293T cells; assay type: cell-based; details: HEK-293T cells; CDCA (50 μM) as agonist; mean ± SE of three independent tests
T1 construct: a fusion plasmid of Gal4 DBD-NR-LBD, which included PPARα, PPARβ, PPARγ, RXRα, RXRβ, RXRγ, LXRα, LXRβ, GPBAR, PXR, and FXR; expressed in transfected cells; host or cells: HEK-293T
T1 sequence (Q96RI1 262-486 limits assumed): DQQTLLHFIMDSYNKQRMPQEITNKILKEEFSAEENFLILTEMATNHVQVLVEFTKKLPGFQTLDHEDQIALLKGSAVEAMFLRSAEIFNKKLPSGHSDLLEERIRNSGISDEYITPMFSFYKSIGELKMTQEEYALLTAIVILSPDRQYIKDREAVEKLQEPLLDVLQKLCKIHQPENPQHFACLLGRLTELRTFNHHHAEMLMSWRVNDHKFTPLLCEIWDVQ
Description: Cell counting: HEK-293T cells in logarithmic growth phase were digested with 0.25% trypsin, collected, and centrifuged. The trypsin-containing medium was discarded, and 2 mL of fresh phenol red-free DMEM medium containing 5% fetal bovine serum was added. The cells were then mixed with the medium to prepare a cell suspension and counted on a cell counting plate.
Cell plating: A determined number of cells were taken from the cell suspension, diluted with phenol red-free DMEM medium containing 5% fetal bovine serum, and plated at a concentration of 10,000 cells per well (100 µL medium) in a 96-well plate. The plate was then incubated at 37 °C and 5% CO2 for 24 h.
Cell transfection: Fresh phenol red-free DMEM medium was taken in a sterile environment, and the previously extracted pFXR-Binding plasmid and PG4.35[luc2P-9XGA4UAS-Hygro] plasmid were added. The mixture was stirred and allowed to stand at 23 °C for 3 min. Then, a 3% amount of transfection reagent was added to the mixture, and it was allowed to stand at 23 °C for 15 min. The mixture was then added to the 96-well plate at a volume of 10 µL per well and incubated at 37 °C in a 5% CO2 environment for 24 h.
The OA derivatives were prepared as 10 mM DMSO stock solutions and further diluted in a concentration gradient, with 10 µL added to each well. The final concentrations of the derivatives ranged from 10 µM to 0.03 µM, with 7 concentration gradients using […] dilution. The test was set with 3 duplicated wells.
Antagonism activity test: The firefly-Renilla Dual Fluorescence Assay Kit (Promega, #E2940, Madison, WI, USA) was used to measure the antagonism activity of the OA derivatives. Firstly, the firefly fluorescence reagent was added to the 96-well plate at a volume of 70 µL per well and shaken in darkness for 15 min. Then, the fluorescence intensity was measured at a wavelength of 645 ± 30 nm in a microplate reader (BioTek, Winooski, VT, USA). Next, the volume of Renilla reagent was added to the 96-well plate at a volume of 70 µL per well and shaken in darkness for 15 min. The fluorescence intensity was then measured at a wavelength of 525 ± 20 nm.
Data processing: The fluorescence data of firefly were divided by the fluorescence data of Renilla to remove errors, and the antagonism efficiency was calculated using the following formula: antagonism efficiency (%) = [1 − (FCompds. − FDMSO)/(FCDCA − FDMSO)] × 100%. In the formula, F represents fluorescence intensity. The antagonistic efficiency data were obtained as a concentration–effect curve using Graphpad Prism 8.0 software, and the corresponding IC50 value was calculated.

[3] = design: method as in PMID 34970143; details: 120 mg·Kg^−1; cited from earlier work
LX-2 cells = test: mRNA expression of liver fibrosis marker genes in TGFβ1-induced LX-2 cells; assay type: cell-based; details: 10 μM, induced by 2 ng·mL^−1 TGFβ1, 24 h
Description: as §1
(A–E) The LX-2 cells underwent a 24 h treatment of 2 ng·mL^−1 TGFβ1, with or without varying concentrations of candidate compounds, following FBS starvation. […] GAPDH/GAPDH was used as the loading control. The mean ± SD values were obtained from three independent assays. […] ANOVA was followed by Tukey’s test for statistical analysis.

[4] = system: RXRα, RXRβ, RXRγ, LXRα, LXRβ, PXR, PPARα, PPARβ, PPARγ, and GPBAR; test: NR selectivity one-hybrid assay in HEK-293T cells (panel of metabolic NRs); assay type: cell-based; details: with corresponding agonists
Description: To assess the compound’s specificity, the mammalian one-hybrid assay was conducted. In this assay, HEK-293T cells were co-transfected with a fusion plasmid of Gal4 DBD-NR LBD (comprising RXRα, RXRβ, RXRγ, PPARα, PPARβ, PPARγ, LXRα, LXRβ, GPBAR, and PXR) and the UAS-TK-Luc reporter, followed by treatment with various concentrations of the compound. The positive control consisted of the corresponding nuclear receptor agonist, and the concentration used in the experiment was set to the EC50 of the agonist.
Figure 3 Compound 10b selectively antagonized FXR. The impact of compound 10b on various NRs was evaluated using a […] one-hybrid assay in HEK-293T cells. The cells were transiently co-transfected with a fusion plasmid of Gal4 DBD-NR-LBD, which included PPARα, PPARβ, PPARγ, RXRα, RXRβ, RXRγ, LXRα, LXRβ, GPBAR, PXR, and FXR, in combination with the UAS-TK-Luc reporter. […] The values are expressed as the means ± SE of three independent experiments. *: p < 0.05 vs. RA (relative agonist).

C=C(C)[C@@H]1CC[C@]2(C(=O)O)CC[C@]3(C)[C@H](CC[C@@H]4[C@@]5(C)CC[C@H](O)C(C)(C)[C@@H]5CC[C@]43C)[C@@H]12 [BA, Betulinic acid]
liver TC levels (HFD mice): reduce | liver TG levels (HFD mice): reduce

C[C@H](CCC(=O)O)[C@H]1CC[C@H]2[C@@H]3[C@H](O)C[C@@H]4C[C@H](O)CC[C@]4(C)[C@H]3CC[C@]12C [CDCA, Chenodeoxycholic acid, reference compound]
expression of CYP7A1 (mRNA) (FXR downstream genes [1]): decrease

CC(=O)CCCC(=O)OC1CC2C3(C)CCC(O)C(C)(C)C3CCC2(C)C2(C)CCC3(C(=O)O)CCC(C)(C)CC3C12 (stereo not drawn) [Compound 7]
CYP7A1 gene expression (FXR downstream genes [2]): downregulated; also recorded: significantly reduces | G6Pase expression (FXR downstream genes [2]): significantly reduces | PEPCK expression (FXR downstream genes [2]): significantly reduces

CCC(C)OC(=O)C(CCC(=O)OC1CC2C3(C)CCC(O)C(C)(C)C3CCC2(C)C2(C)CCC3(C(=O)O)CCC(C)(C)CC3C12)NC(=O)OC(C)(C)C [Compound 20f, 3β-hydroxy-12β-(4′-((tert-butoxycarbonyl)amide)-5′-(sec-butoxy)-L-glutamate)oxy-13H-olean-28-oic acid]
IC50 (FXR): 1010 ± 180 nM

CC1(C)CCC2(C(=O)O)CCC3(C)C(C(OC(=O)CCC(NC(=O)OC(C)(C)C)C(=O)OC4CCCC4)CC4C5(C)CCC(O)C(C)(C)C5CCC43C)C2C1 [Compound 20g, 3β-hydroxy-12β-(4′-((tert-butoxycarbonyl)amide)-5′-cyclopentyloxy-L-glutamate)oxy-13H-olean-28-oic acid]
IC50 (FXR): 820 ± 110 nM

C[C@@H]1CC[C@]2(C(=O)O[C@@H]3O[C@H](CO)[C@@H](O)[C@H](O)[C@H]3O)CC[C@]3(C)C(=CC[C@@H]4[C@@]5(C)CC[C@H](O)[C@](C)(C(=O)O)[C@@H]5CC[C@]43C)[C@@H]2[C@]1(C)O [IsA, Ilexsaponin A1]
liver TC levels [3]: reducing | liver TG [3]: reducing | serum TG [3]: reducing

CC[C@H]1[C@@H](O)[C@@H]2[C@H](CC[C@]3(C)[C@@H]([C@H](C)CCC(=O)O)CC[C@@H]23)[C@@]2(C)CC[C@@H](O)C[C@@H]12 [OCA, obeticholic acid, reference compound]
mRNA expression of CTGF (LX-2 cells): decreased

C/C=C1\C(=O)C[C@H]2[C@@H]3CCC4=CC(=O)CC[C@]4(C)[C@H]3CC[C@]12C [guggulsterone, reference compound]
mRNA expression of ACTA2 (LX-2 cells): significantly decreased | mRNA expression of COL1A1 (LX-2 cells): significantly decreased | antagonism of metabolic NRs [4]: Most NRs were antagonized
